Biological target: T1, BcPPNE (Bacillus cereus, UniProt Q74NK7)
T1 construct: gene BCE_A0238; weak tetramer in solution
T1 sequence (Q74NK7 1-195): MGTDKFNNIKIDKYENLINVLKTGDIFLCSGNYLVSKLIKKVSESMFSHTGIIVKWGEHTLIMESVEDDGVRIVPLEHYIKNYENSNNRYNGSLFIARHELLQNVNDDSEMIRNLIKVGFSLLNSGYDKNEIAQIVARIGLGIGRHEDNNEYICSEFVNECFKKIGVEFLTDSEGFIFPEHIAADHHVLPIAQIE
Test: Thermofluor (thermal shift)
Format: binding
Conditions: no shift value printed

| SMILES | Thermofluor (thermal shift) (crystals soaked at 1 mM showed no ligand density, L-Lys remained bound) | Thermofluor (thermal shift) |
| --- | --- | --- |
| N[C@@H](COP(=O)(O)O)C(=O)O [O-phospho-L-serine] | Thermofluor experiments indicated that BcPPNE also binds L-arginine and O-phospho-L-serine | – |
| N=C(N)NCCC[C@H](N)C(=O)O [L-arginine] | – | Thermofluor experiments indicated that BcPPNE also binds L-arginine and O-phospho-L-serine |

Reference: publication PMC3142127, “Structural Analysis of Papain-Like NlpC/P60 Superfamily Enzymes with a Circularly Permuted Topology Reveals Potential Lipid Binding Sites” (PLoS ONE, 2011)
